This is an account of results in PubChem BioAssay AID1794806 (Yongcheng Song lab at Baylor College of Medicine, 2022).

Activity calls are given as the source filed them.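 Rule for the calls: active = EC50 under 50 µM in a live-cell viability test; inactive = the rest.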

In the test the test system is HeLa proliferation, XTT absorbance. The test is described as follows: HeLa cell growth inhibition, dose response, selectivity assay for AHD inhibitor project, XTT absorbance (AID 1794806).
In the case of `O=C(NCC1CCNCC1)c1cc2ccc(-c3ccc(N4CCCC4)cc3)cc2s1`, the EC50 (in general, the concentration at which the effect is half-maximal) is 50 µM. As to `O=C(NCC1CCNCC1)c1cc2cc(-c3ccc(N4CCCCC4)cc3)ccc2[nH]1`, the EC50 was > 51 µM (inactive). Take `O=C(NCC1CCNCC1)c1c[nH]c2cc(-c3ccc(N4CCCC4)cc3)ccc12`: the EC50 was > 51 µM (inactive). To `NCc1ccc(-c2ccc3cc(C(=O)NCC4CCNCC4)oc3c2)cc1` belongs > 51 µM (inactive); to `O=C(NCC1CCNCC1)c1c[nH]c2cc(-c3ccc(N4CCCCC4)cc3)ccc12`, > 51 µM (inactive); to `O=C(NCC1CCNCC1)c1coc2cc(-c3ccc(N4CCCCC4)cc3)ccc12`, 50 µM. Consider `O=C(NCC1CCNCC1)c1cc2ccc(-c3ccc(N4CCCCC4)cc3)cc2s1`, for which the EC50 was 50 µM. For the compound `O=C(NCC1CCNCC1)c1cc2cc(-c3ccc(N4CCCCC4)cc3)ccc2s1`, the EC50 is 25 µM. Take `O=C(NCC1CCNCC1)c1cc2cc(-c3cn[nH]c3)ccc2[nH]1`: the EC50 is > 51 µM (inactive). Take `NC(=O)c1ccc(-c2ccc3cc(C(=O)NCC4CCNCC4)sc3c2)cc1`: the EC50 was > 51 µM (inactive).
